Numbers after ± are expanded uncertainties.
Experiment: xn = mol fraction of the nth substance listed
Conditions: Liquid, Vibrating tube method

CC1=CC[C@H]2C[C@@H]1C2(C)C [(S)-2-pinene] + C=C1CCC2CC1C2(C)C
mass density [kg/m3]
Conditions | x1 = 0.1044 | x1 = 0.1926 | x1 = 0.3036 | x1 = 0.3949 | x1 = 0.502 | x1 = 0.6052 | x1 = 0.7022 | x1 = 0.7983 | x1 = 0.9028 | x1 = 1
283.15 K, 20000 kPa | 890.1 ± 1.1 | 889 ± 1.1 | 887.9 ± 1.1 | 886.9 ± 1.1 | 885.7 ± 1.1 | 884.7 ± 1.1 | 883.4 ± 1.2 | 882.3 ± 1.2 | 881.1 ± 1.2 | 880 ± 1.2
283.15 K, 25000 kPa | 893.1 ± 1.1 | 891.9 ± 1.1 | 890.9 ± 1.1 | 889.9 ± 1.1 | 888.7 ± 1.1 | 887.8 ± 1.1 | 886.6 ± 1.2 | 885.4 ± 1.2 | 884.3 ± 1.2 | 883.2 ± 1.2
283.15 K, 30000 kPa | 896 ± 1.1 | 894.8 ± 1.1 | 893.7 ± 1.1 | 892.9 ± 1.1 | 891.6 ± 1.1 | 890.7 ± 1.1 | 889.3 ± 1.2 | 888.5 ± 1.2 | 887.4 ± 1.2 | 886.3 ± 1.3
283.15 K, 35000 kPa | 898.9 ± 1.1 | 897.7 ± 1.1 | 896.7 ± 1.1 | 895.8 ± 1.1 | 894.7 ± 1.1 | 893.7 ± 1.2 | 892.5 ± 1.2 | 891.6 ± 1.2 | 890.3 ± 1.2 | 889.4 ± 1.3
283.15 K, 40000 kPa | 901.7 ± 1.1 | 900.6 ± 1.1 | 899.4 ± 1.1 | 898.6 ± 1.1 | 897.5 ± 1.1 | 896.6 ± 1.2 | 895.3 ± 1.2 | 894.6 ± 1.2 | 893.5 ± 1.3 | 892.5 ± 1.3
298.15 K, 20000 kPa | 879.6 ± 1.1 | 878.2 ± 1.1 | 876.9 ± 1.1 | 875.8 ± 1.1 | 874.6 ± 1.1 | 873.4 ± 1.1 | 872.3 ± 1.2 | 871.2 ± 1.2 | 870 ± 1.2 | 868.8 ± 1.2
298.15 K, 25000 kPa | 882.5 ± 1.1 | 881.3 ± 1.1 | 880 ± 1.1 | 879 ± 1.1 | 877.8 ± 1.1 | 876.7 ± 1.1 | 875.6 ± 1.2 | 874.5 ± 1.2 | 873.3 ± 1.2 | 872.1 ± 1.2
298.15 K, 30000 kPa | 885.3 ± 1.1 | 884.2 ± 1.1 | 883 ± 1.1 | 882 ± 1.1 | 880.8 ± 1.1 | 879.7 ± 1.1 | 878.8 ± 1.2 | 877.6 ± 1.2 | 876.4 ± 1.2 | 875.3 ± 1.3
298.15 K, 35000 kPa | 888.3 ± 1.1 | 887.3 ± 1.1 | 886.1 ± 1.1 | 885.1 ± 1.1 | 884 ± 1.1 | 882.9 ± 1.2 | 882 ± 1.2 | 880.8 ± 1.2 | 879.7 ± 1.2 | 878.6 ± 1.3
298.15 K, 40000 kPa | 891.1 ± 1.1 | 890.2 ± 1.1 | 889.1 ± 1.1 | 888 ± 1.1 | 887.1 ± 1.1 | 886 ± 1.2 | 885.1 ± 1.2 | 884 ± 1.2 | 882.9 ± 1.3 | 881.9 ± 1.3
313.15 K, 20000 kPa | 868 ± 1.1 | 867 ± 1.1 | 865.9 ± 1.1 | 864.9 ± 1.1 | 863.6 ± 1.1 | 862.6 ± 1.1 | 861.4 ± 1.2 | 860.3 ± 1.2 | 859 ± 1.2 | 858 ± 1.2
313.15 K, 25000 kPa | 871.4 ± 1.1 | 870.3 ± 1.1 | 869.2 ± 1.1 | 868.2 ± 1.1 | 867 ± 1.1 | 865.8 ± 1.1 | 864.7 ± 1.2 | 863.6 ± 1.2 | 862.4 ± 1.2 | 861.3 ± 1.2
313.15 K, 30000 kPa | 874.6 ± 1.1 | 873.5 ± 1.1 | 872.4 ± 1.1 | 871.4 ± 1.1 | 870.2 ± 1.1 | 869.1 ± 1.2 | 868 ± 1.2 | 866.9 ± 1.2 | 865.7 ± 1.2 | 864.7 ± 1.3
313.15 K, 35000 kPa | 877.8 ± 1.1 | 876.7 ± 1.1 | 875.5 ± 1.1 | 874.6 ± 1.1 | 873.4 ± 1.1 | 872.3 ± 1.2 | 871.2 ± 1.2 | 870.2 ± 1.2 | 869.1 ± 1.2 | 867.9 ± 1.3
313.15 K, 40000 kPa | 881.1 ± 1.1 | 879.9 ± 1.1 | 878.7 ± 1.1 | 877.8 ± 1.1 | 876.6 ± 1.1 | 875.5 ± 1.2 | 874.5 ± 1.2 | 873.5 ± 1.2 | 872.4 ± 1.3 | 871.3 ± 1.3
328.15 K, 20000 kPa | 857.2 ± 1.1 | 855.9 ± 1.1 | 855 ± 1.1 | 853.7 ± 1.1 | 852.5 ± 1.1 | 851.3 ± 1.1 | 850.2 ± 1.2 | 849.1 ± 1.2 | 847.9 ± 1.2 | 846.7 ± 1.2
328.15 K, 25000 kPa | 860.6 ± 1.1 | 859.5 ± 1.1 | 858.3 ± 1.1 | 857.2 ± 1.1 | 856.1 ± 1.1 | 854.9 ± 1.1 | 853.8 ± 1.2 | 852.7 ± 1.2 | 851.5 ± 1.2 | 850.4 ± 1.2
328.15 K, 30000 kPa | 864.1 ± 1.1 | 863.1 ± 1.1 | 862 ± 1.1 | 860.8 ± 1.1 | 859.6 ± 1.1 | 858.5 ± 1.2 | 857.4 ± 1.2 | 856.3 ± 1.2 | 855.1 ± 1.2 | 854 ± 1.3
328.15 K, 35000 kPa | 867.5 ± 1.1 | 866.6 ± 1.1 | 865.4 ± 1.1 | 864.3 ± 1.1 | 863.1 ± 1.1 | 861.9 ± 1.2 | 860.9 ± 1.2 | 859.8 ± 1.2 | 858.6 ± 1.2 | 857.5 ± 1.3
328.15 K, 40000 kPa | 870.8 ± 1.1 | 870 ± 1.1 | 868.9 ± 1.1 | 867.7 ± 1.1 | 866.6 ± 1.2 | 865.5 ± 1.2 | 864.3 ± 1.2 | 863.4 ± 1.2 | 862.1 ± 1.3 | 861.1 ± 1.3
343.15 K, 20000 kPa | 846.7 ± 1.1 | 845.5 ± 1.1 | 844.3 ± 1.1 | 843.2 ± 1.1 | 841.9 ± 1.1 | 840.7 ± 1.1 | 839.4 ± 1.2 | 838.3 ± 1.2 | 837 ± 1.2 | 835.9 ± 1.2
343.15 K, 25000 kPa | 850.5 ± 1.1 | 849.3 ± 1.1 | 848.1 ± 1.1 | 847 ± 1.1 | 845.7 ± 1.1 | 844.6 ± 1.1 | 843.3 ± 1.2 | 842.1 ± 1.2 | 840.9 ± 1.2 | 839.7 ± 1.2
343.15 K, 30000 kPa | 854.2 ± 1.1 | 853 ± 1.1 | 851.9 ± 1.1 | 850.9 ± 1.1 | 849.6 ± 1.1 | 848.5 ± 1.2 | 847.2 ± 1.2 | 846.2 ± 1.2 | 844.9 ± 1.2 | 843.8 ± 1.3
343.15 K, 35000 kPa | 857.7 ± 1.1 | 856.6 ± 1.1 | 855.5 ± 1.1 | 854.5 ± 1.1 | 853.3 ± 1.1 | 852.2 ± 1.2 | 851 ± 1 | 850 ± 1 | 848.7 ± 1.3 | 847.7 ± 1.3
343.15 K, 40000 kPa | 861.3 ± 1.1 | 860.2 ± 1.1 | 859.1 ± 1.1 | 858.1 ± 1.1 | 857 ± 1.2 | 855.9 ± 1.2 | 854.7 ± 1.2 | 853.7 ± 1.2 | 852.4 ± 1.3 | 851.4 ± 1.3
358.15 K, 20000 kPa | 835.9 ± 1.1 | 834.6 ± 1.1 | 833.3 ± 1.1 | 832.2 ± 1.1 | 831 ± 1.1 | 829.8 ± 1.1 | 828.5 ± 1.2 | 827.3 ± 1.2 | 826.1 ± 1.2 | 825 ± 1.2
358.15 K, 25000 kPa | 839.8 ± 1.1 | 838.6 ± 1.1 | 837.4 ± 1.1 | 836.3 ± 1.1 | 835 ± 1.1 | 833.9 ± 1.1 | 832.7 ± 1.2 | 831.5 ± 1.2 | 830.3 ± 1.2 | 829.2 ± 1.2
358.15 K, 30000 kPa | 843.7 ± 1.1 | 842.5 ± 1.1 | 841.3 ± 1.1 | 840.3 ± 1.1 | 839 ± 1.1 | 838 ± 1.2 | 836.7 ± 1.2 | 835.6 ± 1.2 | 834.4 ± 1.2 | 833.3 ± 1.3
358.15 K, 35000 kPa | 847.6 ± 1.1 | 846.4 ± 1.1 | 845.2 ± 1.1 | 844.2 ± 1.1 | 843 ± 1.2 | 841.8 ± 1.2 | 840.7 ± 1.2 | 839.6 ± 1.2 | 838.4 ± 1.3 | 837.4 ± 1.3
358.15 K, 40000 kPa | 851.5 ± 1.1 | 850.4 ± 1.1 | 849.1 ± 1.1 | 848.2 ± 1.1 | 847.1 ± 1.2 | 846 ± 1.2 | 844.8 ± 1.2 | 843.8 ± 1.2 | 842.6 ± 1.3 | 841.5 ± 1.3
